# Test results published in patent publication US9802990B2, “Functional peptides for obesity disorders” (DANONE, S.A., priority 2013, dated 2017).
# Where two headings read alike, the source gives them in different places. Where no end group is shown, it is not given here.
# How the values were obtained:
# [1] = system: C. elegans wild type strain N2; assay: C. elegans body fat reduction, Nile Red staining; type: in vivo, Caenorhabditis elegans; settings: for % Fluorescence Reduction: nematodes fed NG with peptides alone or in Savia soy fermented product, alone or mixed, 1 μg/mL final concentration, Nile Red; for % Fluorescence Reduction C. elegans: synthesized peptides at 1 μg/mL of final concentration
# Method: The ability to reduce body fat content in the nematode C. elegans was analyzed in a group of 5 peptide extracts previously obtained from glycinin (see Table 4). These samples were selected by their high effect on PL and PLA2 in vitro inhibition. Specifically, 5 peptide extracts were selected from the PLA2 inhibition assay (M20G, M5G, M31G, M27G and M29G). Body fat content was analyzed in the C. elegans wild type strain N2 by Red Nile dying of living nematodes. Experiments were carried out with age-synchronized populations, starting from egg-stage to young adult stage (3-day adults). During the experiments, worms were cultured in the NGM agar plates as control condition, NGM with the corresponding peptide extracts (100 μL/plate) and NGM with 6 μg/mL of Orlistat as positive control. Nile Red was added on top of the NG plates already seeded with Escherichia coli OP50 strain to a final concentration of 0.05 μg/ml. After incubation at 20° C., young adult worms (60 worms per condition) were taken to measure the in vivo fluorescence in a VersaFluor™ Fluorometer System. Fluorescence obtained in treated worms was calculated from fluorescence of worms fed in control conditions (reference sample). Experiments were carried out by duplicate.
# From these purified fractions, a total of 11 peptides were selected to be synthesized and evaluated in vivo in the obesity model of C. elegans (Table 9). All peptides were evaluated at 1 μg/mL of final concentration.
# We selected 5 peptides obtained from hydrolysis of glycinin with strain 6 (P8a, P6a, P14c, P16f, P14b) The peptides from glycinin were added to a soy fermented product (Savia® from Danone) both alone or mixed at final concentration of 1 μg/mL. Nematodes were fed with these products and then total lipids were quantified by Nile Red staining.
# [2] = molecular target: PLA2 (pancreatic phospholipase A2) (Homo sapiens, UniProt P04054); assay: PLA2 inhibition assay by HPLC with DOPC as substrate; type: biochemical
# PLA2 (pancreatic phospholipase A2), sequence (P04054 23-148, species assumed): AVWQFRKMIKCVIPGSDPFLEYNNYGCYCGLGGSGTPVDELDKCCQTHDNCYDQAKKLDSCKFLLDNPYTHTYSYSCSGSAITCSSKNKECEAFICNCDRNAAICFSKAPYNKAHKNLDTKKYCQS
# Method: Inhibition of PLA2 enzyme was determined by High Performance Liquid Chromatography (HPLC) using 1,2-dioleoyl-sn-glycero-3-phosphocholine (DOPC) as substrate as described by Singh et al. (A rapid isocratic high-performance liquid chromatography method for determination of cholesterol and 1,2-dioleoyl-sn-glycero-3-phosphocholine. Journal of Chromatography (2005); 1073:347-353). Waters 2695 HPLC with Waters 2996 Photodiode detector Array and a C8 column Hypersil BDS (250×4.6 mm, […]) were used carrying out an eluent isocratic method formed by a mixture of ammonium phosphate buffer 50 mM pH 2.7:methanol (15:85, v/v).
# PL (pancreatic lipase) = molecular target: T1, PL (pancreatic lipase) (Sus scrofa, UniProt P00591); assay: PL inhibition assay with 4-methyl umbelliferyl oleate (4MUO), fluorescence; type: biochemical; settings: synthesized peptides
# T1 sequence (P00591 1-450): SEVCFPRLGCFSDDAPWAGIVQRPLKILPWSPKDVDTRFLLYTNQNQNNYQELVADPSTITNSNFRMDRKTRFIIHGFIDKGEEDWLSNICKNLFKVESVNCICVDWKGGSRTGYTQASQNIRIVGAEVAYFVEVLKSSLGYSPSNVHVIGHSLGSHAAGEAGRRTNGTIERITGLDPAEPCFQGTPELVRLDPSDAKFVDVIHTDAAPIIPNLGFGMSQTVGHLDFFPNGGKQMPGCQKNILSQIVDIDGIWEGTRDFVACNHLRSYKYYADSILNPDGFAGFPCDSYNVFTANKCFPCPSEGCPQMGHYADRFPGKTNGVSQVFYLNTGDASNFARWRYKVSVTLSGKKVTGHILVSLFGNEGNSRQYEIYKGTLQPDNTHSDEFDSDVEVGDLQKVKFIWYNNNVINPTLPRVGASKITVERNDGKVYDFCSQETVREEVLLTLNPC
# Method: Inhibition of PL was determined using 4-methyl umbelliferyl oleate (4MUO) as substrate as described by Sugiyama et al. (Oligomeric procyanidins in apple polyphenol are main active components for inhibition of pancreatic lipase and triglyceride absorption. J Agric Food Chem (2007); 55: 4604-4609) with some modifications. Aliquots of 25 μl of each peptide extract were incubated with 25 μl of PL solution (1 mg/ml) and preincubated for 10 minutes at 26° C. with stirring of 500 rpm. Reaction was initiated by adding 50 μl of 4MUO (0.1 mM) dissolved in Dulbecco's buffer. After incubation at 26° C. for 20 minutes with constant stirring (500 rpm) the reaction was stopped by adding 100 μl of 0.1 M sodium citrate buffer (pH 4.2). The amount of 4-methyl umbelliferone released by the enzyme was determined by fluorescence. Peptide extracts were used as inhibitors in the enzymatic assay but had to be diluted 1/20 or 1/50 because of the interference between the fluorescence and the buffer containing the peptides.
# [3] = In vitro enzymatic digestion model of the digestive tract (pepsin, pancreatin, bile), HPLC; type: in vitro ADME; settings: for degradation in the in vitro digestion model (in words): HPLC, completely degraded = at the beginning of the intestinal phase, resistant ones finally degraded at the end; for metabolised at 0.25 h: Intestinal phase 15 min.; for metabolised at 1 h: Intestinal phase 60 min.
# Text: An in vitro enzymatic digestion model of an in vivo digestive tract was developed for mimicking the physiological conditions to check and certify that each selected peptide was differently degraded throughout the gastro-intestinal tract by the digestive process. Pepsin, pancreatin and bile concentrations were optimized using a published experimental design (Granado-Lorencio et al (2007). J. Agri. Food. Chem., 55, 6387-6394).
# soy glycinin = assay: Protease activity of LAB strains (supernatant and cells); type: biochemical; settings: for Protease activity cell: cells; for Protease activity Supernatant: culture supernatant, proteases above 10 KDa concentrated
# Text: For the purpose of selecting the most efficient lactic acid bacteria having protease activity against glycinin, different strains of the genera Lactobacillus and Streptococcus were subject to the following hydrolysis assay.
# The substrate selected to carry out the process of hydrolysis was soy glycinin. Glycinin is the soy major protein extracted from soy flour after treatment with mercaptoethanol followed by two centrifugation steps as described in Thanh V. H. et al. (Major proteins of soybean seeds: a straightforward fractionation and their characterization. 1976. J Agric Food Chem 24: 1117-1121). Among the enzymatic sources used to degrade glycinin, ten strains were tested: 6 strains from Streptococcus genera (strains 2, 3, 4, 5, 6, 7) and 4 strains from Lactobacillus genera (strains 8, 9, 10 and 11). All these strains were grown in optimal medium (MRS for Lactobacillus strains and BHI for Streptococcus strains) during 17 h at 37° C. and the proteases with a molecular weight above 10 KDa both in supernatant and cells were concentrated to be used as enzymatic sources in glycinin hydrolysis assays. On one hand, proteases from the supernatant were obtained after centrifugation for 15 min at 4000 rpm. Then the supernatant was ultrafiltrated by 10 KDa and the top was resuspended in 2 ml with 50 mM citrate phosphate buffer pH 7. On the other hand, cells obtained from the different cultures were washed with saline solution for 15 min at 4000 rpm and resuspended in 50 mM citrate phosphate buffer pH 7 to evaluate the protease activity in cells and supernatant (Table 1).
# [4] = Gastric phase 30 min., read-out: Degradation (%)
# [5] = Gastric phase 120 min., read-out: Degradation (%)
# [6] = Intestinal phase 30 min., read-out: Degradation (%)
# [7] = Intestinal phase 120 min., read-out: Degradation (%)
compound,measurement,setting,value
"CCCCCCCCCCC[C@@H](C[C@@H]1OC(=O)[C@H]1CCCCCC)OC(=O)[C@H](CC(C)C)NC=O [Orlistat, reference compound]",% Fluorescence Reduction,[1],29.5 ± 0.1%
DEDEDEDEDKPRPSRP (DEDEDEDEDKPRPSRP; listed as Glycine soja) [Peptide P16e],% Fluorescence Reduction C. elegans,[1],21.86 ± 4%
DEDEDEDKPRPSRP (DEDEDEDKPRPSRP; listed as Glycine soja) [Peptide P14d],% Fluorescence Reduction C. elegans,[1],6.26 ± 7.6%
"EEDQPRPDHPPQRP [Peptide P14c, EEDQPRPDHPPQRP]",Percentage of PLA2 inhibition,[2]; peptide 0.035 mg/ml,20.4 ± 4.4%
same,Percentage of PLA2 inhibition,[2]; peptide 0.35 mg/ml,21.1 ± 4.3%
same,Percentage of PLA2 inhibition,[2]; peptide 2 mg/ml,25.2 ± 4.3%
same,Percentage of PLA2 inhibition,[2]; peptide 3.5 mg/ml,26.1 ± 4.1%
same,% Fluorescence Reduction,[1],33.7 ± 5.5%
same,% Fluorescence Reduction C. elegans,[1],39.37 ± 7.08%
same,IC50,PL (pancreatic lipase),28.9 µM
same,metabolised at 0.5 h,[3]; [4],4.2%
same,metabolised at 2 h,[3]; [5],4.6%
same,degradation in the in vitro digestion model (in words),[3],completely degraded
same,metabolised at 0.25 h,[3]; read-out: Degradation (%),92.9%
same,metabolised at 0.5 h,[3]; [6],93.2%
same,metabolised at 1 h,[3]; read-out: Degradation (%),95%
same,metabolised at 2 h,[3]; [7],95.5%
same,metabolised at 5 min,"[3]; Oral phase 5 min., read-out: Degradation (%)",5.3%
"EEEGGSVLSG [Peptide P10b, EEEGGSVLSG]",Percentage of PLA2 inhibition,[2]; peptide 0.035 mg/ml,7.8 ± 5.6%
same,Percentage of PLA2 inhibition,[2]; peptide 0.35 mg/ml,13.9 ± 3.3%
same,Percentage of PLA2 inhibition,[2]; peptide 2 mg/ml,26.1 ± 5.9%
same,Percentage of PLA2 inhibition,[2]; peptide 3.5 mg/ml,26.9 ± 2.5%
same,% Fluorescence Reduction C. elegans,[1],33.48 ± 6.1%
same,IC50,PL (pancreatic lipase),36.3 µM
GKREQDEDEDEDEDKPRPSRP (GKREQDEDEDEDEDKPRPSRP; listed as Glycine soja) [Peptide P21b],% Fluorescence Reduction C. elegans,[1],24.91 ± 7.1%
HQQEEENEGGSILSG (HQQEEENEGGSILSG; listed as Glycine soja) [Peptide P15a],% Fluorescence Reduction C. elegans,[1],22.82 ± 6.1%
Lactobacillus delbrueckii lactis CNCM I-4280 [Strain 8],Protease activity cell,soy glycinin,0.009 U.I./ml
same,Protease activity Supernatant,soy glycinin,0.028 U.I./ml
Lactobacillus helveticus CNCM I-4279 [Strain 9],Protease activity cell,soy glycinin,0.012 U.I./ml
same,Protease activity Supernatant,soy glycinin,0.010 U.I./ml
Lactobacillus paracasei paracasei CNCM I-1518 [Strain 11],Protease activity cell,soy glycinin,0.006 U.I./ml
same,Protease activity Supernatant,soy glycinin,0.029 U.I./ml
Lactobacillus paracasei paracasei CNCM I-4270 [Strain 10],Protease activity cell,soy glycinin,0.005 U.I./ml
same,Protease activity Supernatant,soy glycinin,0.016 U.I./ml
QDEDEDEDEDKPRPSRP (QDEDEDEDEDKPRPSRP; listed as Glycine soja) [Peptide P17c],% Fluorescence Reduction C. elegans,[1],18.13 ± 5.57%
"QGENEEEDSGAIVTVK [Peptide P16f, QGENEEEDSGAIVTVK]",Percentage of PLA2 inhibition,[2]; peptide 0.035 mg/ml,13.6 ± 3.8%
same,Percentage of PLA2 inhibition,[2]; peptide 0.35 mg/ml,13.6 ± 0.4%
same,Percentage of PLA2 inhibition,[2]; peptide 2 mg/ml,15.9 ± 6.0%
same,Percentage of PLA2 inhibition,[2]; peptide 3.5 mg/ml,22.5 ± 3.7%
same,% Fluorescence Reduction,[1],33.9 ± 5.7%
same,% Fluorescence Reduction C. elegans,[1],38.95 ± 8.7%
same,IC50,PL (pancreatic lipase),262 µM
same,metabolised at 0.5 h,[3]; [4],65.8%
same,metabolised at 2 h,[3]; [5],95.2%
same,degradation in the in vitro digestion model (in words),[3],completely degraded
same,metabolised at 0.25 h,[3]; read-out: Degradation (%),100%
same,metabolised at 0.5 h,[3]; [6],100%
same,metabolised at 1 h,[3]; read-out: Degradation (%),100%
same,metabolised at 2 h,[3]; [7],100%
same,Degradation (%),[3]; Oral phase 5 min.,−1.2%
Streptococcus thermophilus CNCM I-1630 [Strain 7],Protease activity cell,soy glycinin,0.001 U.I./ml
same,Protease activity Supernatant,soy glycinin,0.003 U.I./ml
Streptococcus thermophilus CNCM I-2776 [Strain 6],Protease activity cell,soy glycinin,0.001 U.I./ml
same,Protease activity Supernatant,soy glycinin,0.006 U.I./ml
Streptococcus thermophilus CNCM I-2785 [Strain 3],Protease activity cell,soy glycinin,0.001 U.I./ml
same,Protease activity Supernatant,soy glycinin,0.009 U.I./ml
Streptococcus thermophilus CNCM I-2965 [Strain 2],Protease activity cell,soy glycinin,0.003 U.I./ml
same,Protease activity Supernatant,soy glycinin,0.005 U.I./ml
Streptococcus thermophilus CNCM I-3211 [Strain 5],Protease activity cell,soy glycinin,0.001 U.I./ml
same,Protease activity Supernatant,soy glycinin,0.003 U.I./ml
Streptococcus thermophilus CNCM I-4269 [Strain 4],Protease activity cell,soy glycinin,0.002 U.I./ml
same,Protease activity Supernatant,soy glycinin,0.001 U.I./ml
